Source: patent US20240262842A1, “SMALL MOLECULE INHIBITORS OF KRAS G12C MUTANT” (Merck Sharp & Dohme LLC, priority 2021, published 2024)
Like-named read-outs stand apart in the source and are kept apart here.

Tests used:
[1] = target: T1, interaction between GMPPNP-bound recombinant K-Ras4B G12C mutant protein and cRAF RAS-binding domain (cRAF-RBD) (Homo sapiens, UniProt P01116, G12C); assay: Inhibitory activity on interaction between KRAS G12C and cRAF (Alpha technology); conditions: Table 2-1
T1 construct: His-tag (N)
In short: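 His-tagged K-Ras4B G12C (aa 1-169), GMPPNP-loaded, preincubated with compound 1 h at 25° C in pH 7.5 Tris buffer with MgCl2, TCEP, Tween 20. cRAF-RBD (aa 50-132) and Alpha reagents then added for 1.5 h; Alpha signal normalised to DMSO (0%) and GDP-bound KRAS (100%); IC50 from dose titration.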

[2] = test system: MIA PaCa-2 cells; assay: Growth inhibition activity on KRAS-G12C mutant cell line (CellTiter-Glo 3D); format: cell-based, human; conditions: Homo sapiens, MIA PaCa-2, 72 h, MIA PaCa-2, 3-day culture with compound; Table 3-1
In short: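 MIA PaCa-2 cells in RPMI1640 with 10% FBS, U-bottom wells, cultured 1 day before compound (0.2% DMSO final), then 3 days at 37 °C, 5% CO2. Viability by CellTiter-Glo 3D luminescence; growth inhibition versus untreated wells gives IC50 (nM).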

[3] = GMPPNP-bound KRAS G12C incubated with compound 25° C. 1 hour, read-out: IC50
[4] = IC50, GMPPNP-bound KRAS G12C incubated with compound 25° C. 1 hour

T1 sequence (P01116 with tags, fused parts or gaps isoform P01116-2 G12C): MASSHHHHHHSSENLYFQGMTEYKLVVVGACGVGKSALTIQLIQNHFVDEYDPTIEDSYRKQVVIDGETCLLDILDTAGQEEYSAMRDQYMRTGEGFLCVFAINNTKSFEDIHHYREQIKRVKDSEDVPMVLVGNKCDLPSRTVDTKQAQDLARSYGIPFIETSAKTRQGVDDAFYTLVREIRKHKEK

Row | Structure (SMILES) | IC50 [1, 3] | IC50 [2] | IC50 [1, 4]
1 | COc1cc2c(nc(C)n2C)c2c1-c1cccn3c(C(=O)c4cc(F)c(NC(=O)/C=C/CNC(C)(C)C)c(F)c4)cc(c13)CCN2C [Example 79, (E)-4-(tert-butylamino)-N-(2,6-difluoro-4-(7-methoxy-9,10,12-trimeth-yl-9,12,13,14-tetrahydro-imidazo[4″,5″:5′,6′]benzo-[1′,2′:2,3]azocino[4,5,6-hi]indolizine-2-carbonyl)-phenyl)but-2-enamide] | 32.8 nM | 10.6 nM | 
2 | Cn1cnc2c3c(c(C(F)(F)F)cc21)-c1cccc2c(C(=O)c4cc(F)c(NC(=O)/C=C/CNC5(C)COC5)c(F)c4)cn(c12)CCO3 [Example 80, (E)-N-(2,6-difluoro-4-(8-methyl-6-(trifluorometh-yl)-12,13-dihydro-8H-imidazo[4″,5″:3′,4′]benzo-[1′,2′:7,8][1,4]oxazocino-[6,5,4-hi]indole-2-carbon-yl)phenyl)-4-((3-methyl-oxetan-3-yl)amino)but-2-enamide] |  | 22.2 nM | 28.3 nM
3 | CN1CCn2cc(C(=O)c3cc(F)c(NC(=O)/C=C/CNC(C)(C)CF)c(F)c3)c3cccc(c32)-c2c(C(F)(F)F)cc3c(ncn3C)c21 [Example 81, (E)-N-(4-(8,11-dimethyl-6-(trifluoromethyl)-8,11,12,13-tetrahydro-imidazo[4″,5″:5′,6′]benzo-[1′,2′:5,6][1,4]diazocino-[7,8,1-hi]indole-2-carbon-yl)-2,6-difluorophenyl)-4-((1-fluoro-2-methyl-propan-2-yl)amino)but-2-enamide] |  | 33.4 nM | 20.8 nM
4 | Cc1nc2c3c(c(C(F)(F)F)cc2n1C)-c1cccc2c(C(=O)c4cc(F)c(NC(=O)/C=C/CNC(C)(C)CF)c(F)c4)cn(c12)CCN3C [Example 82, (E)-N-(2,6-difluoro-4-(8,9,11-trimethyl-6-(trifluoromethyl)-8,11,12,13-tetrahydro-imidazo[4″,5″:5′,6′]benzo-[1′,2′:5,6][1,4]diazocino-[7,8,1-hi]indole-2-carbon-yl)phenyl)-4-((1-fluoro-2-methylpropan-2-yl)-amino)but-2-enamide] |  | 29.9 nM | 24.9 nM
5 | Cc1cc2c(nc(C)n2C)c2c1-c1cccc3c(C(=O)c4cc(F)c(NC(=O)/C=C/CNC5CC6(COC6)C5)c(F)c4)cn(c13)CCN2C [Example 84, (E)-4-((2-oxaspiro[3.3]-heptan-6-yl)amino)-N-(2,6-difluoro-4-(6,8,9,11-tetramethyl-8,11,12,13-tetrahydroimidazo[4″,5″: 5′,6′]benzo[1′,2′:5,6]-[1,4]diazocino[7,8,1-hi]-indole-2-carbonyl)phenyl) but-2-enamide] |  | 49.6 nM | 39.9 nM
6 | CC(=O)C(C)(C)NC/C=C/C(=O)Nc1c(F)cc(C(=O)c2cn3c4c(cccc24)-c2c(C)cc4c(nc(C)n4C)c2N(C)CC3)cc1F [Example 85, (E)-N-(2,6-difluoro-4-(6,8,9,11-tetramethyl-8,11,12,13-tetrahydro-imidazo[4″,5″:5′,6′]benzo-[1′,2′:5,6][1,4]diazocino-[7,8,1-hi]indole-2-carbon-yl)phenyl)-4-(2-methyl-3-oxobutan-2-ylamino)but-2-enamide] |  | 30.9 nM | 61 nM
7 | CC(=O)N1CCC(C)(NC/C=C/C(=O)Nc2c(F)cc(C(=O)c3cc4c5c(cccn35)-c3c(C(F)(F)F)cc5c(ncn5C)c3N(C)CC4)cc2F)CC1 [Example 86, (E)-4-((1-acetyl-4-methyl-piperidin-4-yl)amino)-N-(4-(9,12-dimethyl-7-(trifluoromethyl)-9,12,13,14-tetrahydro-imidazo[4″,5″:5′,6′]benzo-[1′,2′:2,3]azocino[4,5,6-hi]indolizine-2-carbonyl)-2,6-difluorophenyl)but-2-enamide] | 22.3 nM | 6.11 nM | 
8 | CO[C@H]1CC[C@H](NC/C=C/C(=O)Nc2ccc(C(=O)c3cn4c5c(cccc35)-c3c(C(F)(F)F)cc5c(nc(C)n5C)c3N(C)CC4)nc2)CC1 [Example 88, (E)-4-(((1r,4r)-4-methoxy-cyclohexyl)amino)-N-(6-(8,9,11-trimethyl-6-(trifluoromethyl)-8,11,12,13-tetrahydro-imidazo[4″,5″:5′,6′]benzo-[1′,2′:5,6][1,4]diazocino-[7,8,1-hi]indole-2-carbon-yl)pyridin-3-yl)but-2-enamide] | 39.5 nM | 6.92 nM | 
9 | Cc1nc2c3c(c(C(F)(F)F)cc2n1C)-c1cccc2c(C(=O)c4cc(F)c(NC(=O)/C=C/CNC5(C)COC5)c(F)c4)cn(c12)CCO3 [Example 91] |  | 8.68 nM | 27.2 nM
10 | COc1cc2c(nc(C)n2C)c2c1-c1cccn3c(C(=O)c4cc(F)c(NC(=O)/C=C/CNC(C)(C)CF)c(F)c4)cc(c13)CCN2C [Example 93] | 33.6 nM | 51.6 nM | 
11 | Cc1cc2c(nc(C)n2C)c2c1-c1cccc3c(C(=O)c4cc(F)c(NC(=O)/C=C/CNCC(=O)N(C)C)c(F)c4)cn(c13)CCN2C [Example 94, (E)-N-(2,6-difluoro-4-(6,8,9,11-tetramethyl-8,11,12,13-tetrahydro-imidazo[4″,5″:5′,6′]-benzo[1′,2′:5,6][1,4]-diazocino[7,8,1-hi]indole-2-carbonyl)phenyl)-4-((2-(dimethylamino)-2-oxoethyl)amino)but-2-enamide] |  | 73 nM | 71.6 nM
12 | CN1CCc2cc(C(=O)c3cc(F)c(NC(=O)/C=C/CNCCO)c(F)c3)n3cccc(c23)-c2c(C(F)(F)F)cc3c(ncn3C)c21 [Example 96, (E)-N-(4-(9,12-dimethyl-7-(trifluoromethyl)-9,12,13,14-tetrahydro-imidazo[4″,5″:5′,6′]benzo-[1′,2′:2,3]azocino[4,5,6-hi]indolizine-2-carbonyl)-2,6-difluorophenyl)-4-((2-hydroxyethyl)amino)but-2-enamide] | 30.6 nM | 14.5 nM | 
13 | CN1CCc2cc(C(=O)c3cc(F)c(NC(=O)/C=C/CN[C@@H]4CCCC[C@H]4O)c(F)c3)n3cccc(c23)-c2c(C(F)(F)F)cc3c(ncn3C)c21 [Example 100, (E)-N-(4-(9,12-dimethyl-7-(trifluoromethyl)-9,12,13,14-tetrahydro-imidazo[4″,5″:5′,6′]benzo-[1′,2′:2,3]azocino[4,5,6-hi]indolizine-2-carbonyl)-2,6-difluorophenyl)-4-(((1R,2R)-2-hydroxy-cyclohexyl)amino)but-2-enamide] | 34.5 nM | 23.4 nM | 
14 | CN1CCc2cc(C(=O)c3cc(F)c(NC(=O)/C=C/CN[C@H]4CCCC[C@@H]4O)c(F)c3)n3cccc(c23)-c2c(C(F)(F)F)cc3c(ncn3C)c21 [Example 101] | 27.4 nM | 26.5 nM | 
15 | CCN(CC)[C@H]1CC[C@H](NC/C=C/C(=O)Nc2c(F)cc(C(=O)c3cn4c5c(cccc35)-c3c(C(F)(F)F)cc5c(nc(C)n5C)c3N(C)CC4)cc2F)CC1 [Example 102, (E)-4-(((1r,4r)-4-(diethyl-amino)cyclohexyl)amino)-N-(2,6-difluoro-4-(8,9,11-trimethyl-6-(trifluoro-methyl)-8,11,12,13-tetra-hydroimidazo[4″,5″:5′,6′]-benzo[1′,2′:5,6][1,4]-diazocino[7,8,1-hi]indole-2-carbonyl)phenyl)but-2-enamide] |  | 10.5 nM | 11.2 nM
16 | Cc1cc2c(nc(C)n2C)c2c1-c1cccc3c(C(=O)c4cc(F)c(NC(=O)/C=C/CNC(C)(C)C(=O)N(C)C)c(F)c4)cn(c13)CCN2C [Example 103] |  | 303 nM | 99.2 nM
17 | COc1cc2c(nc(C)n2C)c2c1-c1cccn3c(C(=O)c4cc(F)c(NC(=O)/C=C/CNC5CCCCC5)c(F)c4)cc(c13)CCN2C [Example 104, (E)-4-(cyclohexylamino)-N-(2,6-difluoro-4-(7-methoxy-9,10,12-trimeth-yl-9,12,13,14-tetrahydro-imidazo[4″,5″:5′,6′]benzo-[1′,2′:2,3]azocino[4,5,6-hi]indolizine-2-carbon-yl)phenyl)but-2-enamide] | 41.2 nM | 15.5 nM | 
18 | CC(=O)CC(C)(C)NC/C=C/C(=O)Nc1c(F)cc(C(=O)c2cn3c4c(cccc24)-c2c(C)cc4c(nc(C)n4C)c2N(C)CC3)cc1F [Example 108] |  | 332 nM | 54.2 nM
19 | CN1CCc2cc(C(=O)c3cc(F)c(NC(=O)/C=C/CNC4(CO)CCCC4)c(F)c3)n3cccc(c23)-c2c(C(F)(F)F)cc3c(ncn3C)c21 [Example 109, (E)-N-(4-(9,12-dimethyl-7-(trifluoromethyl)-9,12,13,14-tetrahydro-imidazo[4″,5″:5′,6′]benzo-[1′,2′:2,3]azocino[4,5,6-hi]indolizine-2-carbonyl)-2,6-difluorophenyl)-4-((1-(hydroxymethyl)cyclo-pentyl)amino)but-2-enamide] | 24.8 nM | 19.5 nM | 
20 | CO[C@H]1CC[C@H](NC/C=C/C(=O)Nc2c(F)cc(C(=O)c3cc4c5c(cccn35)-c3c(C)cc5c(ncn5C)c3N(C)CC4)cc2F)CC1 [Example 110, (E)-N-(2,6-difluoro-4-(7,9,12-trimethyl-9,12,13,14-tetrahydro-imidazo[4″,5″:5′,6′]benzo-[1′,2′:2,3]azocino[4,5,6-hi]indolizine-2-carbon-yl)phenyl)-4-(((1r,4r)-4-methoxycyclohexyl)-amino)but-2-enamide] | 35.7 nM | 55.8 nM | 
